Legend:
blood glucose level [1] = settings: micro-needles and pressure force (10 psi); cited from earlier work
blood glucose level [2] = assay: In-vivo insulin delivery, blood glucose level; parameters: species or system Sprague Dawley rats; settings: after 1 hour
Protocol: For all zeolite microneedle, commercial microneedle, and the positive control, a significant pharmaceutical effect could be observed after 1 hour, when the blood glucose level of the rats dropped by about 4-fold from the original level and was subsequently maintained for some hours.

[3] = insulin administration by the transdermal patch, compared with other groups
Protocol: An in vivo test of insulin delivery was conducted on Sprague Dawley rats weighing between approximately 230 g-250 g, which were fasting overnight, but free to access water one day before the test. The rats were anesthetized by a ketamine/xylazine cocktail, and the abdominal hairs were completely removed by a hair clipper followed by chemical depilatory creams. About 80 μl of 100 IU/ml human insulin solution was transdermal administrated to individual rats by either zeolite microneedles or the same type of commercial microneedles used in Example 12. Fixed dosed 0.1 IU insulin solution or saline was also subcutaneously injected by syringes to simulate the positive and negative control respectively. The rats' blood glucose levels were recorded by a portable glucose meter (Roche, Accu-Chek Performa Nano) for 6 hours at different time intervals. For the first 4 hours 200 μl of blood samples were also collected by squeezing the rats' tails. The blood samples were centrifuge at 13000 G for 3 min and then the blood plasma was pipetted into 1.5 ml centrifuge tubes and stored under −80° C. for blood insulin test. The blood insulin levels were tested by an ELISA kit (Mercodia, Human Insulin ELISA). […]
In pharmacokinetics, the administration efficiency of a certain drug is commonly evaluated by its Cmax and Tmax. […]

[4] = In-vitro transdermal delivery across porcine ear skin in vertical diffusion cell (active infusion microneedle patch)
Excerpt: (§1) Porcine ears were freshly obtained from a local slaughter facility, gently washed with running tap water, and chopped into pieces of 50 mm in width. Visual observation was done to check if the skins were free from lesions and infections. Hairs at the back of the ear were carefully removed by clipper. Full thickness skins were obtained using manual-operated dermatome with uniform insertion force and angle. The split skins were cut into discs with 40 mm diameter. The skins were then sprayed and rubbed with 75% ethanol for 1 mm to remove fatty tissues and dirt, followed by DI water washing. Thereafter the skins were blotted with a cellulose-based fiber tissue, such as […] ™, wrapped with aluminum foil, and stored in a −20° C. refrigerator until further use. All prepared porcine skin was used within 2 weeks.
(§2) Vertical diffusion cell was filled with 7 mL phosphate buffered saline (PBS) (137 mM sodium chloride (NaCl), 2.7 mM potassium chloride (KCl), 4.3 mM sodium phosphate dibasic heptahydrate (NaH2PO4.7H2O), and 1.6 mM potassium phosphate monobasic (KH2PO4), pH 7.4) and pre-run at 300 rpm with bath circulator for 1 hr to achieve 37° C. Porcine skin was thawed by soaking in PBS at room temperature for 1 hr. After that, the porcine skin was mounted between the receptor and the donor cell of the diffusion system. The stratum corneum of the skin faced the donor cell while the dermis side faced the receptor cell. The skin was handled with care to avoid bubble accumulation on the receptor side of the skin. Diclofenac sodium (DFS) or insulin (70 μL) and DI water (500 μL) were loaded into the drug and water reservoirs, respectively, through the resealable injector ports. A patch, such as those described in previous examples, was gently shaken to ensure water could make contact with the dried hydrogel inside. The patch was applied on the donor side of the skin by finger force, with the help of adhesive tapes to keep the patch in position. Samples (1 mL) were withdrawn from the receptor cell every hour with immediate replenishment of the same volume of fresh PBS. The tests were done with patches bonded with commercial (ME-C-600), zeolite (SSM-O-150), or plastic (P-O-500) microneedles.
(§3) Quantification of DFS in samples was done by analysis under ultra-performance liquid chromatography (UPLC). With a gradient method A:B=70%:30% to 10%: 90% in 4 min (A=0.02% trifluoroacetic acid (TFA) in H2O; B=0.02% TFA in acetonitrile (ACN)), flow rate=0.45 mL/min with detection wavelength=210 nm. […] Negative control is achieved by direct pipetting of a known amount of drug on skin for diffusion.
(§4) A plastic microneedle plate was used in this experiment.

[5] = In-vivo DFS delivery across skin by microneedle plates; parameters: species or system Sprague Dawley rats; settings: 200 μl of 5 mg/ml DFS bolus, skin sampled after 5 min
Protocol: A in-vivo test was conducted on Sprague Dawley rates between approximately 230 g-250 g to analyze DFS delivery. […] 200 μl of 5 mg/ml DFS in phosphate buffered saline (PBS) was injected through rats' naked skin with either zeolite microneedles or commercial microneedles in bolus. A negative control consisted of placing excess DFS solution on rats' naked skin. After 5 min, the skins were washed by iced DI water. About 1 mm diameter of skin samples at the injection sites were carefully cut and then weighed in 2 ml centrifuge tubes. Then the skin samples were homogenized in 5 fold PBS buffer by sonication. DFS was extracted from the homogenate by liquid-phase extraction using 500 μl ethyl-acetate for twice. The ethyl-acetate was collected into 1.5 ml centrifuge tubes and then removed under vacuum. The residues were reconstituted by 500 μl ACN:H2O (50:50 w/w ratio) and 200 μl of the reconstituted solution was send for UPLC analysis.

[6] = pig, 8 h, pH 7.4
Excerpt: as §1, §2, §3, §4

| Molecule | lowering of normalized blood glucose level (blood glucose level [1]) [%] | drop of blood glucose level from the original level (blood glucose level [2]; commercial microneedle, about 80 μl of 100 IU/ml human insulin) | drop of blood glucose level from the original level (blood glucose level [2]; positive control: 0.1 IU insulin subcutaneously injected by syringe) | drop of blood glucose level from the original level (blood glucose level [2]; zeolite microneedle, about 80 μl of 100 IU/ml human insulin) | Cmax (blood insulin level) [3] | Tmax (blood insulin level) [3] | insulin delivery rate profile ([4]; active infusion patch with zeolite and commercial microneedles) | insulin permeated across skin ([4]; non-porated pig skin, skin patch test (negative control), 70 μL of 4.5 mg/mL insulin) | increase of transdermal DFS delivery compared with the negative control ([5]; commercial microneedle) [times] | increase in delivery amount compared with the commercial microneedle ([5]; zeolite microneedle) | DFS delivery rate ([4]; zeolite microneedle plate adhered to the patch, versus negative control) | Percentage of DFS delivered [6] [%] | Total amount of drug delivered [6] [%] |
| --- | --- | --- | --- | --- | --- | --- | --- | --- | --- | --- | --- | --- | --- |
| insulin | 70 | about 4 fold | about 4 fold | about 4 fold | highest | fastest | linear insulin delivery rate | less than 5% |  |  |  |  |  |
| O=C(O)Cc1ccccc1Nc1c(Cl)cccc1Cl [DFS, Diclofenac sodium] |  |  |  |  |  |  |  |  | ~5 | more than 3 fold | improves delivery rates | 17.6±3.2 | 60.9±6.1 |

Reference: patent publication US10548854B2, “Manufacture of nonelectronic, active-infusion patch and device for transdermal delivery across skin” (The Hong Kong University of Science and Technology, priority 2012, dated 2020)
